# The Kinase Knowledgebase extract (Sharma et al. 2016)
# pIC50: −log10 of the molar value.
# Target: ROCK2 (human) (UniProt O75116)
# Assay: Inhibition of ROCK2 Kinase Activity
# ROCK2 (human), sequence (O75116 whole entry, looked up): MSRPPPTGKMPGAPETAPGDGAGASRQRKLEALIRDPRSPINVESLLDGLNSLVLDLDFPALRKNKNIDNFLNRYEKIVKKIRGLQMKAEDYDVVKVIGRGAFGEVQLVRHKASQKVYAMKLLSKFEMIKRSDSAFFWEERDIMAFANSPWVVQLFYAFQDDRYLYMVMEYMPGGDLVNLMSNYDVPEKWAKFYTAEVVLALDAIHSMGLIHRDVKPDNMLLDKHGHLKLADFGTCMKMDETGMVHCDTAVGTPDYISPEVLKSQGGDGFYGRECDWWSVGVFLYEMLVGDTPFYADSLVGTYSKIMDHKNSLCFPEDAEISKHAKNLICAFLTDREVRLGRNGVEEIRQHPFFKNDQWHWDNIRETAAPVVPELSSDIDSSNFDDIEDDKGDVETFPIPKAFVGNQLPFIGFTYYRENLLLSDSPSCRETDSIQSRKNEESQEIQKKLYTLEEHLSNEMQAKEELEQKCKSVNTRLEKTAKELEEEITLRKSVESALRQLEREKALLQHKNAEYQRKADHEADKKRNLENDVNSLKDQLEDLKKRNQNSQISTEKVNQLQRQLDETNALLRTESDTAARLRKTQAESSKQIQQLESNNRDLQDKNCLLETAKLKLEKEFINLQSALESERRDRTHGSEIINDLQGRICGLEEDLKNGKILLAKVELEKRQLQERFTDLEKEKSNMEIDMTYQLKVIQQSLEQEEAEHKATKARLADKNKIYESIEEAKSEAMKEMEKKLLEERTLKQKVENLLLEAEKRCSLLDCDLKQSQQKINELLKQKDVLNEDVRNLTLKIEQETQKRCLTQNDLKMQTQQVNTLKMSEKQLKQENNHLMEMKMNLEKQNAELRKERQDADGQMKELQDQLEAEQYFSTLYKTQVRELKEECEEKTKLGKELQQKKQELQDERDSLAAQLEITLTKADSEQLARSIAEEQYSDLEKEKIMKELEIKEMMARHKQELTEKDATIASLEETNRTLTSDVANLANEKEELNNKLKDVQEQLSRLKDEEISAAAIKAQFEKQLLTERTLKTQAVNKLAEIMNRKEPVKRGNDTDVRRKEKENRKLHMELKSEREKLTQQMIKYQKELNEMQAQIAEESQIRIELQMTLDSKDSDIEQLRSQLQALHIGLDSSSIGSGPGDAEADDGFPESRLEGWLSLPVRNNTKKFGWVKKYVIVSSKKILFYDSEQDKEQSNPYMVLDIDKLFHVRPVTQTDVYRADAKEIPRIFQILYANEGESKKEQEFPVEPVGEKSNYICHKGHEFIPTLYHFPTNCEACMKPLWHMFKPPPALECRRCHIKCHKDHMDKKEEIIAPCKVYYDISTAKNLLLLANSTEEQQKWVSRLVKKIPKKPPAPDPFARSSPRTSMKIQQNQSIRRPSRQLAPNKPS
row,pIC50,SMILES
1,6.30 to 7.30,NC(CNC(=O)Cc1ccc(F)c(F)c1)c1ccc(C(=O)Nc2ccncc2)cc1 (stereo not given)
2,5.30 to 6.30,NC(CNC(=O)C1CCC1)c1ccc(C(=O)Nc2ccncc2)cc1 (stereo not given)
3,5.30 to 6.30,CC(C)(C(=O)N1CCCC1C(N)c1ccc(C(=O)Nc2ccncc2)cc1)c1ccc(F)c(Cl)c1 (stereo not given)
4,5.30 to 6.30,NC(c1ccc(C(=O)Nc2ccncc2)cc1)C1CCCN1C(=O)Cc1cccc(F)c1F (stereo not given)
5,5.30 to 6.30,CN(CC(N)c1ccc(C(=O)Nc2ccncc2)cc1)C(=O)Cc1ccc(C(F)(F)F)cc1 (stereo not given)
6,6.30 to 7.30,CC(C)(C(=O)NCC(N)c1ccc(C(=O)Nc2ccncc2)cc1)c1ccsc1 (stereo not given)
7,6.30 to 7.30,NC(CC(=O)NCc1ccccn1)c1ccc(C(=O)Nc2ccncc2)cc1 (stereo not given)
8,6.30 to 7.30,NC(CC(=O)NCc1cccc(Br)c1)c1ccc(C(=O)Nc2ccncc2)cc1 (stereo not given)
9,6.30 to 7.30,NC(CNC(=O)c1ccsc1)c1ccc(C(=O)Nc2ccncc2)cc1 (stereo not given)
10,6.30 to 7.30,CN(CCc1ccccc1)C(=O)CC(N)c1ccc(C(=O)Nc2ccncc2)cc1 (stereo not given)
11,5.30 to 6.30,NC(CNC(=O)Cc1ccccn1)c1ccc(C(=O)Nc2ccncc2)cc1 (stereo not given)
12,5.30 to 6.30,COc1ccccc1C(=O)NCC(N)c1ccc(C(=O)Nc2ccncc2)cc1 (stereo not given)
13,5.30 to 6.30,CN(CC(N)c1ccc(C(=O)Nc2ccncc2)cc1)C(=O)Cc1ccc(F)c(F)c1 (stereo not given)
14,5.30 to 6.30,NC(c1ccc(C(=O)Nc2ccncc2)cc1)C1CCCN1C(=O)C1(c2ccsc2)CC1 (stereo not given)
15,5.30 to 6.30,NC(CNC(=O)Cc1ccc(-c2ccccc2)cc1)c1ccc(C(=O)Nc2ccncc2)cc1 (stereo not given)
16,6.30 to 7.30,NC(CNC(=O)CNC(=O)c1ccco1)c1ccc(C(=O)Nc2ccncc2)cc1 (stereo not given)
17,6.30 to 7.30,NC(CNC(=O)CCC1CCCCC1)c1ccc(C(=O)Nc2ccncc2)cc1 (stereo not given)
18,6.30 to 7.30,NC(CC(=O)NCc1ccc(F)c(C(F)(F)F)c1)c1ccc(C(=O)Nc2ccncc2)cc1 (stereo not given)
19,5.30 to 6.30,CCNC(=S)NCC(N)c1ccc(C(=O)Nc2ccncc2)cc1 (stereo not given)
20,6.30 to 7.30,NC(CC(=O)NCC1CCCO1)c1ccc(C(=O)Nc2ccncc2)cc1 (stereo not given)

row,pIC50,SMILES
1,6.30 to 7.30,COCC(C)NC(=O)CC(N)c1ccc(C(=O)Nc2ccncc2)cc1 (stereo not given)
2,6.30 to 7.30,COc1cccc(CC(=O)N(C)CC(N)c2ccc(C(=O)Nc3ccncc3)cc2)c1 (stereo not given)
3,6.30 to 7.30,NC(CNC(=S)Nc1cccc2ccccc12)c1ccc(C(=O)Nc2ccncc2)cc1 (stereo not given)
4,5.30 to 6.30,NC(c1ccc(C(=O)Nc2ccncc2)cc1)C1CCCN1C(=O)Cc1c(F)cccc1Cl (stereo not given)
5,6.30 to 7.30,CCOc1ccccc1CNC(=O)CC(N)c1ccc(C(=O)Nc2ccncc2)cc1 (stereo not given)
6,6.30 to 7.30,NC(CC(=O)NCc1ccc([N+](=O)[O-])cc1)c1ccc(C(=O)Nc2ccncc2)cc1 (stereo not given)
7,> 6.70,NC(CNC(=O)C1(c2ccc(F)cc2)CC1)c1ccc(C(=O)Nc2ccncc2)cc1 (stereo not given)
8,6.30 to 7.30,NC(CNC(=O)C1(c2ccsc2)CC1)c1ccc(C(=O)Nc2ccncc2)cc1 (stereo not given)
9,6.30 to 7.30,NC(CNC(=O)C1(c2ccc(Cl)c(Cl)c2)CC1)c1ccc(C(=O)Nc2ccncc2)cc1 (stereo not given)
10,5.30 to 6.30,CN(CC(N)c1ccc(C(=O)Nc2ccncc2)cc1)C(=O)C1(c2ccc(Cl)cc2)CCCC1 (stereo not given)
11,6.30 to 7.30,NC(CC(=O)NC1CCc2ccccc21)c1ccc(C(=O)Nc2ccncc2)cc1 (stereo not given)
12,5.30 to 6.30,NC(c1ccc(C(=O)Nc2ccncc2)cc1)C1CCCN1C(=O)C1CCSc2ccccc21 (stereo not given)
13,6.30 to 7.30,CC(C)(C(=O)NCC(N)c1ccc(C(=O)Nc2ccncc2)cc1)c1cccs1 (stereo not given)
14,5.30 to 6.30,NC(c1ccc(C(=O)Nc2ccncc2)cc1)C1CCCN1C(=O)C1(c2ccc(F)c(F)c2)CCCC1 (stereo not given)
15,5.30 to 6.30,NC(c1ccc(C(=O)Nc2ccncc2)cc1)C1CCCN1C(=O)C1CC(=O)c2ccccc21 (stereo not given)
16,6.30 to 7.30,Cc1ccccc1CNC(=O)CC(N)c1ccc(C(=O)Nc2ccncc2)cc1 (stereo not given)
17,5.30 to 6.30,NC(CNC(=O)c1cnnc2ccccc12)c1ccc(C(=O)Nc2ccncc2)cc1 (stereo not given)
18,6.30 to 7.30,NC(CC(=O)NCc1ccc(C(F)(F)F)c(F)c1)c1ccc(C(=O)Nc2ccncc2)cc1 (stereo not given)
19,6.30 to 7.30,CC[C@@H](NC(=O)CC(N)c1ccc(C(=O)Nc2ccncc2)cc1)c1ccccc1 (stereo not given in full)
20,6.30 to 7.30,CN(C)c1ccc(NC(=O)NCC(N)c2ccc(C(=O)Nc3ccncc3)cc2)cc1 (stereo not given)
